Experimental data from patent US12269859B2, “Synthetic immune receptors and methods of use thereof” (Angeles Therapeutics, Inc., priority 2016, dated 2025).

Experiments:
[1] = system: RAJI cells; experiment: RAJI xenograft model of lymphoma in NSG mice (survival); type: in vivo
Description: In vivo efficacy of SIR targeting CD19. […] SIR constructs and Gluc-PAC-G07 control construct encoding non-secretory form of Guassia Luciferase. Approximately half the cells were selected with puromycin while the other half was expanded without puromycin selection. NSG mice (Jackson Lab) were sub-lethally irradiated at a dose of 175 cGy. Approximately 24 hours post irradiation (day 2), mice were injected with 2.5×10^4 RAJI cells via tail-vein. […] Control mice (n=5) received no T cells or uninfected T cells. Mice were given human IL2 (400 IU intraperitoneally) on alternate days till the death of all mice in control group.
Approximately half the cells were selected with puromycin while the other half was expanded without puromycin selection. NSG mice (Jackson Lab) were sub-lethally irradiated at a dose of 175 cGy. Approximately 24 hours post irradiation (day 2), mice were injected with 2.5×10^4 RAJI cells via tail-vein. […] Control mice (n=5) received no T cells or uninfected T cells. Mice were given human IL2 (400 IU intraperitoneally) on alternate days till the death of all mice in control group.
SIR construct. NSG mice (Jackson Lab) were sub-lethally irradiated at a dose of 175 cGy. Approximately 24 hours post irradiation (day 2), mice were injected with 2.5×10^4 RAJI cells via tail-vein. […] SIR encoding lentivirus. Control mice (n=5) were injected with 5 million uninfected T cells or given no T cells.
SIR constructs. […] SIR were included as controls. NSG mice (n=5) were sub-lethally irradiated at a dose of 175 cGy. 24 hours post irradiation (day 2), mice were injected with 2.5×10^4 RAJI cells via tail-vein. […] Mice were given human IL2 (400 IU i.p.) on alternate days till the death of all mice in control group.
Human peripheral blood T cells isolated using CD3 magnetic beads were infected with lentiviruses expressing the indicated SIR constructs targeting Lym1 and Lym2. On day 1, the NSG mice were sub-lethally irradiated at a dose of 175 cGy. 24 hours post irradiation (day 2), mice were injected with 25×10^3 Raji cells intravenously. On day 3, the mice were treated intravenously with 10 million indicated CAR-T cells. Beginning on day 4, mice were injected with human IL-2 i.p. at a dose of 400 IU/mice every alternate day after the injection CAR-T cells till the death of all mice in control group.

[2] = system: Protein L magnetic beads; experiment: Jurkat NFAT-GFP assay, coculture with Protein L magnetic beads; type: cell-based, human; conditions: coculture with Protein L beads for 18 hours
Excerpt: Use of Protein L microbeads and Protein L expressing cells for stimulation of SIR and CAR expressing cells. A number of Human cell-based artificial antigen-presenting cells for cancer immunotherapy have been described. One approach for ex vivo expansion of CAR^+ and SIR^+ T cells involves the use of irradiated artificial antigen presenting cells (aAPC) expressing the targeted tumor associated antigen (TAA). However, this approach requires that the aAPC be engineered to express each individual TAA. To overcome this problem, a universal antigen presenting cell was developed. Protein L is an immunoglobulin (Ig) light chain-binding protein expressed by some strains of the anaerobic bacterial species Peptostreptococcus magnus. […] As an alternative to expressing individual TAAs on aAPC, experiments were performed to determine if Protein L could activate CAR^+ T and SIR^+ T cells independent of specificity. In the initial experiments, coculture of Jurkat-NFAT-GFP cells expressing different CAR and SIR constructs were tested to determine whether Protein L magnetic beads would lead to induction of GFP expression. Pierce Protein L magnetic beads (cat. #88849; concentration 10 mg/ml) were purchased from ThermoFisher and diluted 1:10 in PBS. Approximately 10 μl of diluted beads were added per well in a U-bottom 96-well plate. […] CAR were added to the wells and cocultured with the beads for 18 hours. […]

[3] = system: 293-Protein L-II cells; experiment: Jurkat NFAT-GFP assay, coculture with 293-Protein L-II cells; type: cell-based, human; conditions: co-culture with 293-Protein L-II cells approximately 18 hours
Excerpt: Generation of human aAPC expressing Protein L on cell surface. Lentiviral chimeric antigen receptor (CAR) constructs were generated expressing different regions of Protein L in fusion with hinge and transmembrane regions of human CD8, 41BB costimulatory domain and CD3z chain. The nucleotide sequence of Protein L was codon optimized for optimal expression in human cells. It needs to be noted that the 41BB costimulatory domain and CD3z chain are not essential for the function of Protein L for the purpose of this invention. The vectors also carried N-terminal signal peptides derived from either human CD8 or IgH to allow cell surface transport of Protein L. The complete nucleic acid and amino acid sequence of the vectors are provided in SEQ ID NO: 888 and SEQ ID NO: 889.
Next, 293 cells were infected with a lentivirus vector encoding the Protein L-II construct (072716-K01) and polyclonal population of cells stably expressing Protein L were generated following selection with 750 ng/ml puromycin. […] SIR constructs. […] The use of Protein-L expressing aAPC is, however, not limited to above type of cells. These cells can serve as universal aAPC for any immune effector cell which carries an antigen binding domain derived from a suitable κ chain containing antibody that can bind to Protein L.

[4] = system: RAJI cells; experiment: Jurkat NFAT-GFP assay, coculture with RAJI cells; type: cell-based, human; conditions: SIR/CAR-expressing Jurkat-NFAT-GFP cells cocultured with RAJI cells
Description: (B) Induction of NFAT promoter driven GFP expression. The control vector- and SIR-expressing Jurkat-NFAT-GFP cocultured for 4-24 hours with the target antigen-expressing cell line (described above) and their ability to bind to the target antigen is assayed by measuring induction of GFP expression using Flow Cytometry. Cellular supernatant is collected and assayed for the induction of cytokines (e.g., IL2).
Jurkat NFAT-GFP Assay For Synthetic Immune Receptors. The Jurkat-NFAT-GFP cells are engineered in such a way that the IL-2 promoter, which carries NFAT binding sites, is cloned upstream of the GFP gene. These cells have been used to study signaling via TCR and CAR. […]
Induction of GFP expression by coculturing of Jurkat-NFAT-GFP cells expressing different SIR constructs and the different target cells was studied essentially as described previously (Wu, Roybal, Puchner, Onuffer, & Lim, 2015). GFP expression was monitored by FACS analysis. […] The names of different SIRs, their SEQ ID NOs, component antigen binding domains and TCR chains can be determined by reference to Tables 7A-7H. […] The signs +/−, +, 2+ etc. after the name of the cell lines indicate the relative degree of positivity on the Jurkat-NFAT-GFP assay as measured by the % GFP positive cells after culture of the SIR expressing Jurkat-NFAT-GFP cells with that cell line.

`Cc1sc2c(c1C)C(c1ccc(Cl)cc1)=N[C@@H](CC(=O)OC(C)(C)C)c1nnc(C)n1-2` [JQ1(+), reference compound] was tested, and the “persistence of SIR-T cells and survival vs vehicle (in words)” value ([1]; 50 mg/kg twice daily intra-peritoneal, mice receiving SEQ ID NO: 1200 SIR-T cells) was “longer persistence of SIR-T cells and survive longer”.
In the case of `COc1ccc(-c2cc3c(C)nc(N)nc3n([C@H]3CC[C@H](OCCO)CC3)c2=O)cn1` [PF-04691502, reference compound], the “median survival of mice given SIR-T cells expanded in presence vs absence of the inhibitor (in words)” value ([1]; SIR-T (SEQ ID NO:900) expanded with 0.10 μM to 0.5 μM) is reported as “higher”.
For “CD8SP-FMC63(vL-vH)-Myc-BBz-T2A-PAC [SEQ ID NO:4501, reference compound]”, the “induction of GFP expression (in words)” value [2] was “modest induction of GFP expression” and the “induction of GFP expression (in words)” value [3] was “strong induction of GFP expression”.
In the case of “pSBbi-puro-FMC63vL-V5-[TCRb-KACIAH]-F-P2A-FMC63vH-MYC-[TCRa-CSDVP]-F-F2A [SEQ ID NO:875]”, the “induction of GFP expression / NFAT signaling (in words)” value [4] is reported as “showed GFP induction”.
